In the kinase profiling compilation of Christmann-Franck et al. (2016):

Experiments:
Test in all cases: KINOMEscan competition binding
WEE1 (human) = WEE1 (human) (UniProt P30291); conditions: compound 10.0 µM
[1] = tested on: PIK3CA (human), P42336 [H1047Y]; conditions: compound 10.0 µM
DDR2 (human) = DDR2 (human) (UniProt Q16832); conditions: compound 10.0 µM
[2] = tested on: KIT (human), P10721 [V559D/T670I]; conditions: compound 10.0 µM
CSNK1D (human) = CSNK1D (human) (UniProt P48730); conditions: compound 10.0 µM
NTRK1 (human) = NTRK1 (human) (UniProt P04629); conditions: compound 10.0 µM
STK17A (human) = STK17A (human) (UniProt Q9UEE5); conditions: compound 10.0 µM
ERBB4 (human) = ERBB4 (human) (UniProt Q15303); conditions: compound 10.0 µM
MAPKAPK5 (human) = MAPKAPK5 (human) (UniProt Q8IW41); conditions: compound 10.0 µM
TRPM6 (human) = TRPM6 (human) (UniProt Q9BX84); conditions: compound 10.0 µM
Chain of TRPM6 (human) (Q9BX84 whole entry, looked up): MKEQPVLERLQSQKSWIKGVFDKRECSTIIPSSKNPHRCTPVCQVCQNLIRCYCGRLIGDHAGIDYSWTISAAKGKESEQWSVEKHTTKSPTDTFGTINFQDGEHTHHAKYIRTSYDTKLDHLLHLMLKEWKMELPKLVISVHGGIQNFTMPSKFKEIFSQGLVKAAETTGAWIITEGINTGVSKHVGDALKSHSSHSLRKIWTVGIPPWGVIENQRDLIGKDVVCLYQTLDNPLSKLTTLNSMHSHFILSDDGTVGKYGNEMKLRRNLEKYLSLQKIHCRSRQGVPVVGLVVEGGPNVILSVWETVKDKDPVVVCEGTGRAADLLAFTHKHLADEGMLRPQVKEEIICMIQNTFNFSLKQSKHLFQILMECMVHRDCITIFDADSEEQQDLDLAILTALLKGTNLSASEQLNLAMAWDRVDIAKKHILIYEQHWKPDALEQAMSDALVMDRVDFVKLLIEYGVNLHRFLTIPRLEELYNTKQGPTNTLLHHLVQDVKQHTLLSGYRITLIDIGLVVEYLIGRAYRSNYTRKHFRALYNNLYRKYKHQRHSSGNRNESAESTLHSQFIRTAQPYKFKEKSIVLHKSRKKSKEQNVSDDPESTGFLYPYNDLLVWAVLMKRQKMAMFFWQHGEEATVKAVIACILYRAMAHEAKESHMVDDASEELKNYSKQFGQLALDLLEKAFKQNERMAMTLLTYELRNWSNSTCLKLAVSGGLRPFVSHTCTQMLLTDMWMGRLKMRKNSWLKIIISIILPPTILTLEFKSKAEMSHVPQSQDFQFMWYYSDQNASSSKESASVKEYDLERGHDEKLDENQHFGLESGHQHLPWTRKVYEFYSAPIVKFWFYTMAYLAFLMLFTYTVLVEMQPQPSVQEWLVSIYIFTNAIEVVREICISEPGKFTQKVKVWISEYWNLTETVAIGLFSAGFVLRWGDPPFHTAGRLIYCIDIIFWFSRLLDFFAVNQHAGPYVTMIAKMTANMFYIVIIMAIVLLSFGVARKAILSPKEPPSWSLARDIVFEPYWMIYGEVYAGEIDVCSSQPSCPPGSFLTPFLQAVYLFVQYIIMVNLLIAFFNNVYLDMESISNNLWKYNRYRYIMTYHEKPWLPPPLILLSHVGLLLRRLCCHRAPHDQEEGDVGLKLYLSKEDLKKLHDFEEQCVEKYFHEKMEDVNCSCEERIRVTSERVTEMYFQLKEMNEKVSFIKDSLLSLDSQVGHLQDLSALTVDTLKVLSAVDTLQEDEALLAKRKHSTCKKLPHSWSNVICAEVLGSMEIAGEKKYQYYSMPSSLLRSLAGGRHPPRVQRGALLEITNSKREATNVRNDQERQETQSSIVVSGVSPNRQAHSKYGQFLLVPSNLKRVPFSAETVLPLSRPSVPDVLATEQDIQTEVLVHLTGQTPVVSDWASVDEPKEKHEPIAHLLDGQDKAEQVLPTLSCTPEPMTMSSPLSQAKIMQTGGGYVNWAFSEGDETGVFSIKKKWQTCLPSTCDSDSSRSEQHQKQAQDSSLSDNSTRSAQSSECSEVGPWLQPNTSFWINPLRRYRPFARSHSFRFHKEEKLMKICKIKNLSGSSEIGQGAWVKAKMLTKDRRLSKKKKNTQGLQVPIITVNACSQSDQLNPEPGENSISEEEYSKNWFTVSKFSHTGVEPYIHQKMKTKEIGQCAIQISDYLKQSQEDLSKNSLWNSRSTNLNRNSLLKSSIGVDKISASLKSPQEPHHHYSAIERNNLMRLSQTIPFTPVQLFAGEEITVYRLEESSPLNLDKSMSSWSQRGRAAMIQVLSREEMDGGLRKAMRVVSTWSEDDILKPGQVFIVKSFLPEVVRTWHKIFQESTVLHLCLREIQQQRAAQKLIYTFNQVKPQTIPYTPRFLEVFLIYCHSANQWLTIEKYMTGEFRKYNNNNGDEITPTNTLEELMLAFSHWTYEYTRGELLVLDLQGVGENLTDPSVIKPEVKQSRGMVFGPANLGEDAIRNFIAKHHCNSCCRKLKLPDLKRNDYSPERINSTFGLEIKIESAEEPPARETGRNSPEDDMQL

[3] = tested on: FLT3 (human), P36888 [ITD]; conditions: compound 10.0 µM
MAST1 (human) = MAST1 (human) (UniProt Q9Y2H9); conditions: compound 10.0 µM
CDC42BPG (human) = CDC42BPG (human) (UniProt Q6DT37); conditions: compound 10.0 µM
CaMK1 (human) = CaMK1 (human) (UniProt Q14012); conditions: compound 10.0 µM
PDPK1 (human) = PDPK1 (human) (UniProt O15530); conditions: compound 10.0 µM
MATK (human) = MATK (human) (UniProt P42679); conditions: compound 10.0 µM
GRK7 (human) = GRK7 (human) (UniProt Q8WTQ7); conditions: compound 10.0 µM
PIK3C2G (human) = PIK3C2G (human) (UniProt O75747); conditions: compound 10.0 µM
[4] = tested on: EGFR (human), P00533 [G719S]; conditions: compound 10.0 µM
STK39 (human) = STK39 (human) (UniProt Q9UEW8); conditions: compound 10.0 µM
MAPK7 (human) = MAPK7 (human) (UniProt Q13164); conditions: compound 10.0 µM
IGF1R (human) = IGF1R (human) (UniProt P08069); conditions: compound 10.0 µM
SIK3 (human) = SIK3 (human) (UniProt Q9Y2K2); conditions: compound 10.0 µM
FLT3 (human) = FLT3 (human) (UniProt P36888); conditions: compound 10.0 µM
PKN2 (human) = PKN2 (human) (UniProt Q16513); conditions: compound 10.0 µM
SRMS (human) = SRMS (human) (UniProt Q9H3Y6); conditions: compound 10.0 µM
Chain of SRMS (human) (Q9H3Y6 whole entry, looked up): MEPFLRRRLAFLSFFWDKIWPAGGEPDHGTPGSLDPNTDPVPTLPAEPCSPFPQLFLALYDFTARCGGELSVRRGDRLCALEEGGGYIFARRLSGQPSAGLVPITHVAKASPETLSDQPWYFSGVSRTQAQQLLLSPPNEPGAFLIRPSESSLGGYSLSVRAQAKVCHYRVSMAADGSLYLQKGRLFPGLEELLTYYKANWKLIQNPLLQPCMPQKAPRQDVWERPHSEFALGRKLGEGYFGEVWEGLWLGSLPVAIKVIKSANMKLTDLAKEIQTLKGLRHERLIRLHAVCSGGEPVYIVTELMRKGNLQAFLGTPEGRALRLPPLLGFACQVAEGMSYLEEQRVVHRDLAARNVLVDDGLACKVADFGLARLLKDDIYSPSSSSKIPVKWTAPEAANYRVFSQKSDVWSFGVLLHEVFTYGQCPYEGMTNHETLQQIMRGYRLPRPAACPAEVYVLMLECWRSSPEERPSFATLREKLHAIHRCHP

FGR (human) = FGR (human) (UniProt P09769); conditions: compound 10.0 µM
[5] = tested on: MET (human), P08581 [Y1235D]; conditions: compound 10.0 µM
MAPK6 (human) = MAPK6 (human) (UniProt Q16659); conditions: compound 10.0 µM
Chain of MAPK6 (human) (Q16659 whole entry, looked up): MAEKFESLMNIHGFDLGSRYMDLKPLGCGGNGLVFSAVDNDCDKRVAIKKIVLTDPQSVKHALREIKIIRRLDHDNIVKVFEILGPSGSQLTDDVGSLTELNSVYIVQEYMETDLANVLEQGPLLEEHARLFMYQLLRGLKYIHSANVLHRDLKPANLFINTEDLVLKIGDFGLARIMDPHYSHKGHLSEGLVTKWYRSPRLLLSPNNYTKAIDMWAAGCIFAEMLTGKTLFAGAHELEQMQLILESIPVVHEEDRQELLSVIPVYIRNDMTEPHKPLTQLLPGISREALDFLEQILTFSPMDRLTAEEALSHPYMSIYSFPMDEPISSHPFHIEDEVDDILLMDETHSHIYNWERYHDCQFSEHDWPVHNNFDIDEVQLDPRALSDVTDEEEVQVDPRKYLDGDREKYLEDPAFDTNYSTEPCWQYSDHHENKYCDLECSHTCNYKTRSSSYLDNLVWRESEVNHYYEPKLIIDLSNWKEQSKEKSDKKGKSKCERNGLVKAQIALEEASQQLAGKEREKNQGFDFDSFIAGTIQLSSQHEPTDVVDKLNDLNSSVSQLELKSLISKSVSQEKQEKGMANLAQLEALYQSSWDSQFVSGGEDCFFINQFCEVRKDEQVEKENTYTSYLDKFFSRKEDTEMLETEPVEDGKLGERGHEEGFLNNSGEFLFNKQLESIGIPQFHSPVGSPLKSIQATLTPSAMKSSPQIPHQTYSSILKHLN

STK25 (human) = STK25 (human) (UniProt O00506); conditions: compound 10.0 µM
Chain of STK25 (human) (O00506 whole entry, looked up): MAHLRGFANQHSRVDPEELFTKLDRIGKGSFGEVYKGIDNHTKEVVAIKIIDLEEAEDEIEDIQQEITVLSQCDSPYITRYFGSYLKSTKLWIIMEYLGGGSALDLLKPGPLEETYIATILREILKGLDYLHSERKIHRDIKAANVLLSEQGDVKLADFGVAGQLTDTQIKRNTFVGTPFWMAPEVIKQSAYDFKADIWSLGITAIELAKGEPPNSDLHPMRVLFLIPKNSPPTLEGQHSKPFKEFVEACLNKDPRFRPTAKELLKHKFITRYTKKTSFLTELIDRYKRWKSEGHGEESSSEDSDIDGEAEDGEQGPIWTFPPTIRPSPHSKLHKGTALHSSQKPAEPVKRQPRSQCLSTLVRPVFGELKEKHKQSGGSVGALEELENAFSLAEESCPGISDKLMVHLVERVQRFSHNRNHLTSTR

[6] = tested on: ABL1 (human), P00519 [E255K]; conditions: compound 10.0 µM
MAP3K11 (human) = MAP3K11 (human) (UniProt Q16584); conditions: compound 10.0 µM
CIT (human) = CIT (human) (UniProt O14578); conditions: compound 10.0 µM
EIF2AK1 (human) = EIF2AK1 (human) (UniProt Q9BQI3); conditions: compound 10.0 µM
CDKL2 (human) = CDKL2 (human) (UniProt Q92772); conditions: compound 10.0 µM
KIT (human) = KIT (human) (UniProt P10721)
Chain of KIT (human) (P10721 whole entry, looked up): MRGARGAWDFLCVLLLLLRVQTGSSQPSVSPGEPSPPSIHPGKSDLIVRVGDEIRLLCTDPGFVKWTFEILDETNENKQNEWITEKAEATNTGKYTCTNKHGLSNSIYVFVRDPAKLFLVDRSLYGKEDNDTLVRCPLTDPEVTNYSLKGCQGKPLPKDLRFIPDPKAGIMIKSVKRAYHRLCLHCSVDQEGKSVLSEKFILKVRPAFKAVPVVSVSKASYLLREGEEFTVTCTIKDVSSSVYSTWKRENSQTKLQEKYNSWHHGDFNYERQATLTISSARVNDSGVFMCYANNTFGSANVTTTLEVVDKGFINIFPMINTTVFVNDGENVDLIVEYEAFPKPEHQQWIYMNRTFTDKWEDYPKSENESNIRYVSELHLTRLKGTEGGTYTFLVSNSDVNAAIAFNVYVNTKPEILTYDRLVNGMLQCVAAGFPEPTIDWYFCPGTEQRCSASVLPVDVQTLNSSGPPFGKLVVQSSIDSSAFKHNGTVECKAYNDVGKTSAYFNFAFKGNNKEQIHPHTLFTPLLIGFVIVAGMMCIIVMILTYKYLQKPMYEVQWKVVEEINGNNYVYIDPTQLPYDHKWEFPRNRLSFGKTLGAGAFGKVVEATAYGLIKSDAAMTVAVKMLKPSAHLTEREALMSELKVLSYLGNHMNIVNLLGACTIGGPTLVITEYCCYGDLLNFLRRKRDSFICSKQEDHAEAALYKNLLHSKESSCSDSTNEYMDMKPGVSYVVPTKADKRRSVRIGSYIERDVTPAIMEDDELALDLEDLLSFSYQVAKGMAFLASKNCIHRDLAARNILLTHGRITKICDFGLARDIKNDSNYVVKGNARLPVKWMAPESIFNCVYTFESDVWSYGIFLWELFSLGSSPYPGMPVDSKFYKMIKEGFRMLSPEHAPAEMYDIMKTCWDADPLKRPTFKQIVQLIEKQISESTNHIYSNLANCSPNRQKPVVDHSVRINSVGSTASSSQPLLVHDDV

PHKG1 (human) = PHKG1 (human) (UniProt Q16816); conditions: compound 10.0 µM
Chain of PHKG1 (human) (Q16816 whole entry, looked up): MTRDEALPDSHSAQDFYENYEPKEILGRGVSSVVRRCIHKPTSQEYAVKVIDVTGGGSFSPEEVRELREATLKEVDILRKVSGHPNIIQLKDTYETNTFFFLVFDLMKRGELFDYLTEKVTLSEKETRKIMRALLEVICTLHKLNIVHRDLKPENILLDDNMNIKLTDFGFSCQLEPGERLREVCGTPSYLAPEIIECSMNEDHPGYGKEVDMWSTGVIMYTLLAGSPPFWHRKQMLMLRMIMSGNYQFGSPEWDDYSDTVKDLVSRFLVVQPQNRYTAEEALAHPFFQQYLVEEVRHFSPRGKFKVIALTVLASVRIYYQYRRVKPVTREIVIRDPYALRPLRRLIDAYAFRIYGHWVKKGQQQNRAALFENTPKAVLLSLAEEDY

[7] = molecular target: JAK1 JH1 catalytic (human) (UniProt P23458); conditions: compound 10.0 µM
YSK4 (human) = YSK4 (human) (UniProt Q56UN5); conditions: compound 10.0 µM
[8] = tested on: KIT (human), P10721 [V559D/V654A]; conditions: compound 10.0 µM
Chain of KIT (human), P10721 [V559D/V654A] (P10721 whole entry V559D/V654A, looked up): as the sequence (P10721 whole entry, looked up) above, with V559D, V654A counted along it

PRKD3 (human) = PRKD3 (human) (UniProt O94806); conditions: compound 10.0 µM
EIF2AK2 (human) = EIF2AK2 (human) (UniProt P19525); conditions: compound 10.0 µM

Cc1ccc(NC(=O)c2ccc(NC(=O)/C=C/CN(C)C)cc2)cc1Nc1nccc(-c2cccnc2)n1
kinase still bound, per cent of control (WEE1 (human)): 100%
kinase still bound, per cent of control [1]: 72%
kinase still bound, per cent of control (DDR2 (human)): 0.9%
kinase still bound, per cent of control [2]: 18%
kinase still bound, per cent of control (CSNK1D (human)): 54%
kinase still bound, per cent of control (NTRK1 (human)): 95%
kinase still bound, per cent of control (STK17A (human)): 1.6%
kinase still bound, per cent of control (ERBB4 (human)): 100%
kinase still bound, per cent of control (MAPKAPK5 (human)): 74%
kinase still bound, per cent of control (TRPM6 (human)): 52%
kinase still bound, per cent of control [3]: 46%
kinase still bound, per cent of control (MAST1 (human)): 89%
kinase still bound, per cent of control (CDC42BPG (human)): 86%
kinase still bound, per cent of control (CaMK1 (human)): 75%
kinase still bound, per cent of control (PDPK1 (human)): 100%
kinase still bound, per cent of control (MATK (human)): 45%
kinase still bound, per cent of control (GRK7 (human)): 82%
kinase still bound, per cent of control (PIK3C2G (human)): 100%
kinase still bound, per cent of control [4]: 61%
kinase still bound, per cent of control (STK39 (human)): 82%
kinase still bound, per cent of control (MAPK7 (human)): 100%
kinase still bound, per cent of control (IGF1R (human)): 100%
kinase still bound, per cent of control (SIK3 (human)): 100%
kinase still bound, per cent of control (FLT3 (human)): 75%
kinase still bound, per cent of control (PKN2 (human)): 91%
kinase still bound, per cent of control (SRMS (human)): 71%
kinase still bound, per cent of control (FGR (human)): 80%
kinase still bound, per cent of control [5]: 100%
kinase still bound, per cent of control (MAPK6 (human)): 85%
kinase still bound, per cent of control (STK25 (human)): 100%
kinase still bound, per cent of control [6]: 64%
kinase still bound, per cent of control (MAP3K11 (human)): 100%
kinase still bound, per cent of control (CIT (human)): 59%
kinase still bound, per cent of control (EIF2AK1 (human)): 94%
kinase still bound, per cent of control (CDKL2 (human)): 100%
Kd (KIT (human)): 30 nM
kinase still bound, per cent of control (KIT (human); compound 10.0 µM): 0%
kinase still bound, per cent of control (PHKG1 (human)): 87%
kinase still bound, per cent of control [7]: 100%
kinase still bound, per cent of control (YSK4 (human)): 28%
kinase still bound, per cent of control [8]: 3.4%
kinase still bound, per cent of control (PRKD3 (human)): 100%
kinase still bound, per cent of control (EIF2AK2 (human)): 100%
